# In patent US20030068286A1, “Self-tanning compositions having improved coloration using 3,5-dimethoxy-4-hydroxybenzaldehyde and 1,3-dihydroxyacetone” (priority 2001, published 2003):
# Columns and labels:
# skin = test: Skin coloration by the Maillard reaction (self-tanning) after application to the skin; assay type: in vivo; settings: for coloration produced in the skin: applied to the skin, melanoidins in the upper layers of skin
# Procedure: The secondary compound, 3,5-dimethoxy-4-hydroxybenzaldehyde, is applied to the skin along with DHA.
# Over time, the chemical stability of unprotected DHA is reduced, producing undesirable chemical compounds such as methylglyoxal and formic acid. […] The Maillard reaction produced by the DHA take sup to 5 hours to produce melanoidins, or colored compounds, in the upper layers of the skin. By the time an undesirable coloration develops, the wearer is helpless to remove or adjust the coloration, and must wait until their upper layers of skin are shed in order to rid themselves of the off-color.
# FIG. 1 illustrates the chemical structure of 3,5-dimethoxy-4-hydroxybenzaldehyde. Structurally, this compound is a vanillin, or a hydroxymethoxybenzaldehyde.
# Water solubility = test: Water solubility
# From the text: The 3,5-dimethoxy-4-hydroxybenzaldehyde, as a water-insoluble aldehyde, is chemically compatible with water-soluble DHA. The compounds exist in two separate phases of a cosmetic formulation, the water phase and the oil phase.
smiles,measurement,setting,value
CCOc1cc(C=O)ccc1O [ethylvanillin],coloration produced in the skin,skin,do not produce similar coloration or any Maillard reaction mechanism
"O=C(CO)CO [DHA, 1,3-dihydroxyacetone]",coloration produced in the skin,skin,orange-brown
same,coloration produced on the skin by degraded DHA,"skin; degraded or ""stale"" DHA applied to the skin",orange coloration
same,time of the Maillard reaction to produce melanoidins in the upper layers of the skin,skin; in vivo,up to 5 hours
COc1cccc(C=O)c1O [ortho-vanillin],coloration produced in the skin,skin,do not produce similar coloration or any Maillard reaction mechanism
"COc1cc(C=O)cc(OC)c1O [3,5-dimethoxy-4-hydroxybenzaldehyde]",coloration produced in the skin,skin,olive-green
same,Maillard reaction rate relative to DHA,"skin; compared with DHA, attributed to larger molecular size and longer penetration time into the skin",slightly slower
same,water solubility,Water solubility,water-insoluble
